What is called IC50 is the concentration needed to halve the response being measured.

Data set [1] has as its system PGE2 production in mouse whole blood. As to the kind of experiment: LPS stimulated PGE2 production by mouse whole blood. In kind it is cell-based. The procedure: Murine blood (C57/b16 male) was collected in heparinized collection tubes. The blood was diluted 0.5 times with cell culture medium without serum. 150 μl diluted blood was transferred into a 96-well microtiterplate. Silbinol™ was dissolved in DMSO and subsequently further diluted before adding to the cells in a concentration range of 0-25-50 μg/ml. Total amount of DMSO in the well was 0.1% DMSO. After 1 hour of preincubation of the mixture of blood cells and Silbinol™ or blood cells and 100 μM Ibuprofen™ at 37° C. in a humidified atmosphere containing 5% CO2, 1 μg/ml LPS was added and incubated for another 20 hours. Plates were centrifuged (5 minutes, 1200 rpm, SorvallRT7™) and supernatants are harvested and stored at −80° C. for further analysis.
PGE2 in the thawed supernatants was determined using the commercial enzyme immunoassay of Biotrak™ (Biotrak Amersham, Buckinghamshire, UK) according to the manufacturer's protocol 2.

In the next data set the test system is hPBMCs. The data set is described as follows: Metabolic activity of PBMCs (succinate dehydrogenase activity). The format is cell-based, human. The following applies: lower dose range (Table 4), compared with PGE2 inhibition. On the procedure:
Peripheral Blood Mononuclear Cells (PBMCs) isolated from buffy coats of human blood from 3 healthy donors were stored in liquid nitrogen using standard procedures. For each experiment, PBMCs were thawed, transferred into a 50 ml centrifuge tube (BD Falcon, Erembodegem Aalst, Belgium) and cell culture medium (RPNI-1640 containing 25 mM HEPES and 2 mM L-glutamine (Life-Technologies, Merelbeke, Belgium) and further enriched with 10% heat inactivated fetal calf serum (^hiFCS), 120 U/ml penicillin/streptomycin and 1.2 mM sodium pyruvate) was added in a drop-wise fashion. Subsequently cells were centrifuged for 5 minutes at 1200 rpm (Sorvall RT7™). Cells were washed with cell culture medium (two times) and counted using a coulter counter (Beckman Coulter, Fullerton, Calif., USA). Parallel, a microscopic viability check using trypan blue is performed. PBMCs were pipetted into a 96-well flat bottom microtiterplate (BD Falcon, Brembodegem Aalst, Belgium), 1.5×10^5 cells per well. […] Metabolic activity of the PBMCs with and without the presence of test compound was determined using the succinate dehydrogenase activity.

Data set [2] deals with PGE2 production by hPBMCs. The data set is described as follows: PGE2 production by LPS stimulated hPBMCs (enzyme immunoassay). The following applies: for PGE2 production / effect on PGE2 production by hPBMCs (in words): after LPS stimulation; for IC50: Homo sapiens, read-out: estimated IC50 (PGE2 production by hPBMCs after LPS stimulation). The format is cell-based, human. On the procedure: Peripheral Blood Mononuclear Cells (PBMCs) isolated from buffy coats of human blood from 3 healthy donors were stored in liquid nitrogen using standard procedures. For each experiment, PBMCs were thawed, transferred into a 50 ml centrifuge tube (BD Falcon, Erembodegem Aalst, Belgium) and cell culture medium (RPNI-1640 containing 25 mM HEPES and 2 mM L-glutamine (Life-Technologies, Merelbeke, Belgium) and further enriched with 10% heat inactivated fetal calf serum (^hiFCS), 120 U/ml penicillin/streptomycin and 1.2 mM sodium pyruvate) was added in a drop-wise fashion. Subsequently cells were centrifuged for 5 minutes at 1200 rpm (Sorvall RT7™). Cells were washed with cell culture medium (two times) and counted using a coulter counter (Beckman Coulter, Fullerton, Calif., USA). Parallel, a microscopic viability check using trypan blue is performed. PBMCs were pipetted into a 96-well flat bottom microtiterplate (BD Falcon, Brembodegem Aalst, Belgium), 1.5×10^5 cells per well. Pterostilbene (Chromadex, Santa Anna, Calif., USA), Silbinol™ (Pterocarpus marsupium plant extract containing at least 5 wt. % pterostilbene based on dried weight; Sabinsa Corporation, Piscataway, USA) and resveratrol (Sigma, St. Louis, USA) were dissolved in dimethylsulfoxide (DMSO) and subsequently further diluted in cell culture medium and added to the cells in a concentration range (see below). DMSO concentration in the wells was 0.1%. Subsequently the cells were incubated for 1 hour at 37° C. in a humidified atmosphere containing 5% CO2. After 1 hour, lipopolysaccharide (LPS, E. Coli […], […]) was added and the cells were incubated for 20 hours at 37° C. in a humidified atmosphere containing 5% CO2. The supernatants were harvested 20 hours after incubation and stored at −80° C. until further analysis. Metabolic activity of the PBMCs with and without the presence of test compound was determined using the succinate dehydrogenase activity.
Concentrations of 3.12, 6.25, 12.5, 25 and 50 μg/ml of either Pterostilbene or Silbinol™ were tested to find the dose range of inhibitory activity (Table 1 and 2). Following the determination of the dose range with PGE2 production inhibitory activity, concentrations of 0, 2, 4, 8, 16 and 32 μg/ml Silbinol™ (Table 3) and 0, 0.037, 0.11, 0.33, 1 and 3 μM pterostilbene (Table 4) were tested.
For comparative purposes, the effects 0, 0.33, 1, 3, 9 and 27 μM resveratrol on PGE2 production by hPBMCs was determined (Table 5).
PGE2 in the thawed supernatants was measured using a commercial enzyme immunoassay (Biotrak Amersham, Buckinghamshire, UK) according to the manufacturer's protocol 2.

The molecule `CC(C)Cc1ccc(C(C)C(=O)O)cc1` (stereo not shown) [Ibuprofen] showed a PGE2 production in data set [1] (100 μM, LPS stimulated mouse whole blood) of 1709 pg/mL. For the same molecule, the “effect on PGE2 production in mouse whole blood (in words)” value in data set [1] (LPS stimulated) was “inhibit PGE2 production”.

Turning to `COc1cc(C=Cc2ccc(O)cc2)cc(OC)c1` [Pterostilbene, 4′-hydroxy-3,5-dimethoxystilbene], the “metabolic activity of hPBMCs” value in the data set on hPBMCs is “decrease, however to a much lesser extent”. The PGE2 production in data set [2] (0.037 μM, Mean of donors A-C) came to 5434 pg/mL; in data set [2] (0.037 μM, donor A), 5957 pg/mL; in data set [2] (0.037 μM, donor B), 7788 pg/mL; in data set [2] (0.037 μM, donor C), 2574 pg/mL; in data set [2] (0.11 μM, Mean of donors A-C), 4494 pg/mL; in data set [2] (0.11 μM, donor A) it was 5305 pg/mL. Also, the PGE2 production was determined as 6930 pg/mL in data set [2] (0.11 μM, donor B); 1248 pg/mL in data set [2] (0.11 μM, donor C); 2589 pg/mL in data set [2] (0.33 μM, Mean of donors A-C); 2786 pg/mL in data set [2] (0.33 μM, donor A); 4782 pg/mL in data set [2] (0.33 μM, donor B); 199 pg/mL in data set [2] (0.33 μM, donor C). Further, the PGE2 production in data set [2] (1 μM, Mean of donors A-C) came out at 1879 pg/mL; in data set [2] (1 μM, donor A), 2067 pg/mL; in data set [2] (1 μM, donor B), 3570 pg/mL; in data set [2] (3 μM, Mean of donors A-C), 691 pg/mL; in data set [2] (3 μM, donor A) it was 280 pg/mL; in data set [2] (3 μM, donor B), 1794 pg/mL. For the same molecule, the PGE2 production in data set [2] (3.12 μg/ml, Mean of donors A-C) stood at 39 pg/mL; in data set [2] (3.12 μg/ml, donor B), 117 pg/mL; in data set [2] (6.25 μg/ml, Mean of donors A-C), 9 pg/mL; in data set [2] (6.25 μg/ml, donor A), 28 pg/mL; in data set [2] (12.5 μg/ml, Mean of donors A-C), 2 pg/mL; in data set [2] (12.5 μg/ml, donor B), 5 pg/mL. Moreover, the PGE2 production in data set [2] (25 μg/ml, Mean of donors A-C) was determined as 44 pg/mL; in data set [2] (25 μg/ml, donor A), 63 pg/mL; in data set [2] (25 μg/ml, donor B) it was 69 pg/mL; in data set [2] (50 μg/ml, Mean of donors A-C) it was 269 pg/mL; in data set [2] (50 μg/ml, donor A), 584 pg/mL; in data set [2] (50 μg/ml, donor B), 222 pg/mL. In data set [2], the IC50 is 0.83 µM. Moreover, the “effect on PGE2 production by hPBMCs (in words)” value in data set [2] was “inhibit PGE2 production”.

In the case of `Oc1ccc(C=Cc2cc(O)cc(O)c2)cc1` [Resveratrol, resveratrol, reference compound], in data set [2], the IC50 is 4.7 µM. Moreover, the PGE2 production in data set [2] (Table 5, 0.33 μM, Mean of donors A-C) came to 6717 pg/mL; in data set [2] (Table 5, 0.33 μM, donor A), 8380 pg/mL; in data set [2] (Table 5, 0.33 μM, donor B), 8060 pg/mL; in data set [2] (Table 5, 0.33 μM, donor C), 3710 pg/mL; in data set [2] (Table 5, 1 μM, Mean of donors A-C), 5601 pg/mL; in data set [2] (Table 5, 1 μM, donor A) it was 6835 pg/mL. For the same molecule, the PGE2 production in data set [2] (Table 5, 1 μM, donor B) is 7369 pg/mL; in data set [2] (Table 5, 1 μM, donor C), 2597 pg/mL; in data set [2] (Table 5, 3 μM, Mean of donors A-C) it was 2916 pg/mL; in data set [2] (Table 5, 3 μM, donor A), 3120 pg/mL; in data set [2] (Table 5, 3 μM, donor B) it was 5449 pg/mL; in data set [2] (Table 5, 3 μM, donor C), 178 pg/mL. Further, the PGE2 production in data set [2] (Table 5, 9 μM, Mean of donors A-C) was 1383 pg/mL; in data set [2] (Table 5, 9 μM, donor A) it was 1213 pg/mL; in data set [2] (Table 5, 9 μM, donor B) it was 2936 pg/mL; in data set [2] (Table 5, 27 μM, Mean of donors A-C), 1090 pg/mL; in data set [2] (Table 5, 27 μM, donor A), 913 pg/mL; in data set [2] (Table 5, 27 μM, donor B), 2355 pg/mL. In addition, the “effect on PGE2 production by hPBMCs (in words)” value in data set [2] is “inhibit PGE2 production”.

The values above are taken from US20050038125A1, “Method for the treatment of arthritis and pain” (priority 2003, published 2005).
